Measurements taken from ChEMBL document CHEMBL2062405, “Alkaloids from the root of Isatis indigotica” (J Nat Prod, 2012).
The source made the active and inactive calls.

Legend:
[1] = system: Human immunodeficiency virus 1; assay: Antiviral activity against HIV1 infected in 293T cells cotransfected with VSV-G at 10 uM after 48 hrs by ELISA; assay type: functional, organism-based
Human alphaherpesvirus 1 = assay: Antiviral activity against Herpes simplex virus 1 at 10 uM; assay type: functional, organism-based
A549 = assay: Cytotoxicity against human A549 cells at 10 uM after 96 hrs by MTT assay; assay type: functional, cell-based
BGC-823 = assay: Cytotoxicity against human BGC823 cells at 10 uM after 96 hrs by MTT assay; assay type: functional, cell-based
MCF7 = assay: Cytotoxicity against human MCF7 cells at 10 uM after 96 hrs by MTT assay; assay type: functional, cell-based
Bel-7402 = assay: Cytotoxicity against human Bel7402 cells at 10 uM after 96 hrs by MTT assay; assay type: functional, cell-based
KETR3 = assay: Cytotoxicity against human Ketr3 cells at 10 uM after 96 hrs by MTT assay; assay type: functional, cell-based
HCT-8 = assay: Cytotoxicity against human HCT8 cells at 10 uM after 96 hrs by MTT assay; assay type: functional, cell-based
[2] = Hepatoprotective activity in rat WB-F344 cells assessed as inhibition of DL-Galactosamine-induced toxicity at 10 uM incubated for 1 hr prior to DL-Galactosamine-challenge measured after 24 hrs by MTT assay; assay type: functional

O=C1c2ccccc2-n2c1nc1ccccc1c2=O
inactive: Activity [1] | Activity (Human alphaherpesvirus 1) | Activity (A549) | Activity (BGC-823) | Activity (MCF7) | Activity (Bel-7402) | Activity (KETR3) | Activity (HCT-8)

N#C/C=C1/C(=O)Nc2cccc(O)c21
inactive: Activity [1] | Activity (Human alphaherpesvirus 1) | Activity (A549) | Activity (BGC-823) | Activity (MCF7) | Activity (Bel-7402) | Activity (KETR3) | Activity (HCT-8)

O=C1/C(=C2\Nc3ccccc3C2=O)Nc2ccccc21
inactive: Activity [1] | Activity (Human alphaherpesvirus 1) | Activity (A549) | Activity (BGC-823) | Activity (MCF7) | Activity (Bel-7402) | Activity (KETR3) | Activity (HCT-8)

NC(=O)C[C@@]1(O)C(=O)Nc2ccccc21
inactive: Activity [1] | Activity (Human alphaherpesvirus 1) | Activity (A549) | Activity (BGC-823) | Activity (MCF7) | Activity (Bel-7402) | Activity (KETR3) | Activity (HCT-8)

NC(=O)C[C@H]1C(=O)Nc2cccc(O)c21
inactive: Activity [1] | Activity (Human alphaherpesvirus 1) | Activity (A549) | Activity (BGC-823) | Activity (MCF7) | Activity (Bel-7402) | Activity (KETR3) | Activity (HCT-8)

Nc1ccccc1C(=O)O[C@@H]1O[C@H](CO)[C@@H](O)[C@H](O)[C@H]1O
inactive: Activity [1] | Activity (Human alphaherpesvirus 1) | Activity (A549) | Activity (BGC-823) | Activity (MCF7) | Activity (Bel-7402) | Activity (KETR3) | Activity (HCT-8)

O=C1C[C@@]2(O)c3ccccc3N3C(=O)c4ccccc4N1[C@H]32
inactive: Activity [1] | Activity (Human alphaherpesvirus 1) | Activity (A549) | Activity (BGC-823) | Activity (MCF7) | Activity (Bel-7402) | Activity (KETR3) | Activity (HCT-8)

N#CCc1c[nH]c2cc(O[C@@H]3O[C@H](CO)[C@@H](O)[C@H](O)[C@H]3O)ccc12
inactive: Activity [1] | Activity (Human alphaherpesvirus 1) | Activity (A549) | Activity (BGC-823) | Activity (MCF7) | Activity (Bel-7402) | Activity (KETR3) | Activity (HCT-8)

COc1cccc2c1[C@@](O)(CC(N)=O)C(=O)N2
inactive: Activity [1] | Activity (Human alphaherpesvirus 1) | Activity (A549) | Activity (BGC-823) | Activity (MCF7) | Activity (Bel-7402) | Activity (KETR3) | Activity (HCT-8)

N#CC[C@@]1(O)C(=O)Nc2cccc(O)c21
inactive: Activity [1] | Activity (Human alphaherpesvirus 1) | Activity (A549) | Activity (BGC-823) | Activity (MCF7) | Activity (Bel-7402) | Activity (KETR3) | Activity (HCT-8)

O=C1O[C@H]([C@@H](O)CO)[C@@H](O)[C@@]1(O)Cc1c[nH]c2ccccc12
inactive: Activity [1] | Activity (Human alphaherpesvirus 1) | Activity (A549) | Activity (BGC-823) | Activity (MCF7) | Activity (Bel-7402) | Activity (KETR3) | Activity (HCT-8)

Oc1ccc2[nH]c(O)cc2c1
inactive: Activity [1] | Activity (Human alphaherpesvirus 1) | Activity (A549) | Activity (BGC-823) | Activity (MCF7) | Activity (Bel-7402) | Activity (KETR3) | Activity (HCT-8)

COC(=O)c1ccccc1NC(=O)c1c[nH]c2ccccc2c1=O
inactive: Activity [1] | Activity (Human alphaherpesvirus 1) | Activity (A549) | Activity (BGC-823) | Activity (MCF7) | Activity (Bel-7402) | Activity (KETR3) | Activity (HCT-8)

O=C1Nc2ccccc2/C1=C1/Nc2ccccc2C1=O
inactive: Activity [1] | Activity (Human alphaherpesvirus 1) | Activity (A549) | Activity (BGC-823) | Activity (MCF7) | Activity (Bel-7402) | Activity (KETR3) | Activity (HCT-8)

N#CC[C@@]1(O)C(=O)Nc2ccccc21
inactive: Activity [1] | Activity (Human alphaherpesvirus 1) | Activity (A549) | Activity (BGC-823) | Activity (MCF7) | Activity (Bel-7402) | Activity (KETR3) | Activity (HCT-8)

COn1cc(CC#N)c2ccccc21
inactive: Activity [1] | Activity (Human alphaherpesvirus 1) | Activity (A549) | Activity (BGC-823) | Activity (MCF7) | Activity (Bel-7402) | Activity (KETR3) | Activity (HCT-8)

C[C@H]1OC2=C(NC1=O)C(=O)OCC2
inactive: Activity [1] | Activity (Human alphaherpesvirus 1) | Activity (A549) | Activity (BGC-823) | Activity (MCF7) | Activity (Bel-7402) | Activity (KETR3) | Activity (HCT-8)

N#CCc1c[nH]c2ccccc12
inactive: Activity [1] | Activity (Human alphaherpesvirus 1) | Activity (A549) | Activity (BGC-823) | Activity (MCF7) | Activity (Bel-7402) | Activity (KETR3) | Activity (HCT-8)

O=C1C[C@]2(O)c3ccccc3N3C(=O)c4ccccc4N1[C@@H]32
inactive: Activity [1] | Activity (Human alphaherpesvirus 1) | Activity (A549) | Activity (BGC-823) | Activity (MCF7) | Activity (Bel-7402) | Activity (KETR3) | Activity (HCT-8)

O=Cc1c[nH]c2ccccc12
inactive: Activity [1] | Activity (Human alphaherpesvirus 1) | Activity (A549) | Activity (BGC-823) | Activity (MCF7) | Activity (Bel-7402) | Activity (KETR3) | Activity (HCT-8)

O=C1CC2(O)c3ccccc3N3C(=O)c4ccccc4N1C32 (stereo not drawn)
47%: inhibition at 10 µM [2]

OC[C@H]1O[C@@H](Oc2c[nH]c3ccccc23)[C@H](O)[C@@H](O)[C@@H]1O
inactive: Activity [1] | Activity (Human alphaherpesvirus 1) | Activity (A549) | Activity (BGC-823) | Activity (MCF7) | Activity (Bel-7402) | Activity (KETR3) | Activity (HCT-8)

COC(=O)c1cc(OC)c2c(c1-c1c(CO)cc(OC)c3c1OCO3)OCO2 [BICYCLOL]
42%: inhibition at 10 µM [2]

O=c1cc(-c2ccc(CO)o2)c2cc(O)ccc2[nH]1
inactive: Activity [1] | Activity (Human alphaherpesvirus 1) | Activity (A549) | Activity (BGC-823) | Activity (MCF7) | Activity (Bel-7402) | Activity (KETR3) | Activity (HCT-8)
